Source: ChEMBL document CHEMBL1649448, “Atorvastatin is a promising partner for antimalarial drugs in treatment of Plasmodium falciparum malaria” (Antimicrob Agents Chemother, 2009)

Tested on: Plasmodium falciparum
Assay: Antimalarial activity against Plasmodium falciparum 3D7 assessed as incorporation of [3H]hypoxanthine after 48 hrs by scintillation counter
Assay type: functional, organism-based

Structure (SMILES) | IC50
OC(c1cc(C(F)(F)F)nc2c(C(F)(F)F)cccc12)C1CCCCN1 (stereo not given) [MEFLOQUINE] | 14 nM

Tested on: Plasmodium falciparum
Assay: Antimalarial activity against Plasmodium falciparum W2 assessed as incorporation of [3H]hypoxanthine after 48 hrs by scintillation counter
Assay type: functional, organism-based

Structure (SMILES) | IC50
C[C@H]1[C@@H](O)O[C@@H]2O[C@@]3(C)CC[C@H]4[C@H](C)CC[C@@H]1[C@@]24OO3 [ARTENIMOL] | 0.9 nM
CCNCc1cc(Nc2ccnc3cc(Cl)ccc23)ccc1O [DESETHYL AMODIAQUINE] | 23 nM
OC(c1cc(C(F)(F)F)nc2c(C(F)(F)F)cccc12)C1CCCCN1 (stereo not given) [MEFLOQUINE] | 14 nM

Tested on: Plasmodium falciparum
Assay: Antimalarial activity against Plasmodium falciparum D6 assessed as incorporation of [3H]hypoxanthine after 48 hrs by scintillation counter
Assay type: functional, organism-based

Structure (SMILES) | IC50
C[C@H]1[C@@H](O)O[C@@H]2O[C@@]3(C)CC[C@H]4[C@H](C)CC[C@@H]1[C@@]24OO3 [ARTENIMOL] | 0.9 nM
CCNCc1cc(Nc2ccnc3cc(Cl)ccc23)ccc1O [DESETHYL AMODIAQUINE] | 23 nM
OC(c1cc(C(F)(F)F)nc2c(C(F)(F)F)cccc12)C1CCCCN1 (stereo not given) [MEFLOQUINE] | 14 nM

Tested on: Plasmodium falciparum
Assay: Antimalarial activity against Plasmodium falciparum FCM29 assessed as incorporation of [3H]hypoxanthine after 48 hrs by scintillation counter
Assay type: functional, organism-based

Structure (SMILES) | IC50
C[C@H]1[C@@H](O)O[C@@H]2O[C@@]3(C)CC[C@H]4[C@H](C)CC[C@@H]1[C@@]24OO3 [ARTENIMOL] | 0.9 nM
CCNCc1cc(Nc2ccnc3cc(Cl)ccc23)ccc1O [DESETHYL AMODIAQUINE] | 23 nM
OC(c1cc(C(F)(F)F)nc2c(C(F)(F)F)cccc12)C1CCCCN1 (stereo not given) [MEFLOQUINE] | 14 nM

Tested on: Plasmodium falciparum
Assay: Antimalarial activity against Plasmodium falciparum FCR3 assessed as incorporation of [3H]hypoxanthine after 48 hrs by scintillation counter
Assay type: functional, organism-based

Structure (SMILES) | IC50
C[C@H]1[C@@H](O)O[C@@H]2O[C@@]3(C)CC[C@H]4[C@H](C)CC[C@@H]1[C@@]24OO3 [ARTENIMOL] | 0.9 nM
CCNCc1cc(Nc2ccnc3cc(Cl)ccc23)ccc1O [DESETHYL AMODIAQUINE] | 23 nM
OC(c1cc(C(F)(F)F)nc2c(C(F)(F)F)cccc12)C1CCCCN1 (stereo not given) [MEFLOQUINE] | 14 nM

Tested on: Plasmodium falciparum
Assay: Antimalarial activity against Plasmodium falciparum PA assessed as incorporation of [3H]hypoxanthine after 48 hrs by scintillation counter
Assay type: functional, organism-based

Structure (SMILES) | IC50
C[C@H]1[C@@H](O)O[C@@H]2O[C@@]3(C)CC[C@H]4[C@H](C)CC[C@@H]1[C@@]24OO3 [ARTENIMOL] | 0.9 nM
CCNCc1cc(Nc2ccnc3cc(Cl)ccc23)ccc1O [DESETHYL AMODIAQUINE] | 23 nM
OC(c1cc(C(F)(F)F)nc2c(C(F)(F)F)cccc12)C1CCCCN1 (stereo not given) [MEFLOQUINE] | 14 nM

Tested on: Plasmodium falciparum
Assay: Antimalarial activity against Plasmodium falciparum HB3 assessed as incorporation of [3H]hypoxanthine after 48 hrs by scintillation counter
Assay type: functional, organism-based

Structure (SMILES) | IC50
C[C@H]1[C@@H](O)O[C@@H]2O[C@@]3(C)CC[C@H]4[C@H](C)CC[C@@H]1[C@@]24OO3 [ARTENIMOL] | 0.9 nM
CCNCc1cc(Nc2ccnc3cc(Cl)ccc23)ccc1O [DESETHYL AMODIAQUINE] | 23 nM
OC(c1cc(C(F)(F)F)nc2c(C(F)(F)F)cccc12)C1CCCCN1 (stereo not given) [MEFLOQUINE] | 14 nM

Tested on: Plasmodium falciparum
Assay: Antimalarial activity against Plasmodium falciparum 106/1 assessed as incorporation of [3H]hypoxanthine after 48 hrs by scintillation counter
Assay type: functional, organism-based

Structure (SMILES) | IC50
C[C@H]1[C@@H](O)O[C@@H]2O[C@@]3(C)CC[C@H]4[C@H](C)CC[C@@H]1[C@@]24OO3 [ARTENIMOL] | 0.9 nM
CCNCc1cc(Nc2ccnc3cc(Cl)ccc23)ccc1O [DESETHYL AMODIAQUINE] | 23 nM
OC(c1cc(C(F)(F)F)nc2c(C(F)(F)F)cccc12)C1CCCCN1 (stereo not given) [MEFLOQUINE] | 14 nM

Tested on: Plasmodium falciparum
Assay: Antimalarial activity against Plasmodium falciparum IMT Bres assessed as incorporation of [3H]hypoxanthine after 48 hrs by scintillation counter
Assay type: functional, organism-based

Structure (SMILES) | IC50
C[C@H]1[C@@H](O)O[C@@H]2O[C@@]3(C)CC[C@H]4[C@H](C)CC[C@@H]1[C@@]24OO3 [ARTENIMOL] | 0.9 nM
CCNCc1cc(Nc2ccnc3cc(Cl)ccc23)ccc1O [DESETHYL AMODIAQUINE] | 23 nM
OC(c1cc(C(F)(F)F)nc2c(C(F)(F)F)cccc12)C1CCCCN1 (stereo not given) [MEFLOQUINE] | 14 nM

Tested on: Plasmodium falciparum
Assay: Antimalarial activity against Plasmodium falciparum IMT Guy assessed as incorporation of [3H]hypoxanthine after 48 hrs by scintillation counter
Assay type: functional, organism-based

Structure (SMILES) | IC50
C[C@H]1[C@@H](O)O[C@@H]2O[C@@]3(C)CC[C@H]4[C@H](C)CC[C@@H]1[C@@]24OO3 [ARTENIMOL] | 0.9 nM
CCNCc1cc(Nc2ccnc3cc(Cl)ccc23)ccc1O [DESETHYL AMODIAQUINE] | 23 nM
OC(c1cc(C(F)(F)F)nc2c(C(F)(F)F)cccc12)C1CCCCN1 (stereo not given) [MEFLOQUINE] | 14 nM

Tested on: Plasmodium falciparum
Assay: Antimalarial activity against Plasmodium falciparum IMT A4 assessed as incorporation of [3H]hypoxanthine after 48 hrs by scintillation counter
Assay type: functional, organism-based

Structure (SMILES) | IC50
C[C@H]1[C@@H](O)O[C@@H]2O[C@@]3(C)CC[C@H]4[C@H](C)CC[C@@H]1[C@@]24OO3 [ARTENIMOL] | 0.9 nM
CCNCc1cc(Nc2ccnc3cc(Cl)ccc23)ccc1O [DESETHYL AMODIAQUINE] | 23 nM
OC(c1cc(C(F)(F)F)nc2c(C(F)(F)F)cccc12)C1CCCCN1 (stereo not given) [MEFLOQUINE] | 14 nM

Tested on: Plasmodium falciparum
Assay: Antimalarial activity against Plasmodium falciparum IMT 31 assessed as incorporation of [3H]hypoxanthine after 48 hrs by scintillation counter
Assay type: functional, organism-based

Structure (SMILES) | IC50
C[C@H]1[C@@H](O)O[C@@H]2O[C@@]3(C)CC[C@H]4[C@H](C)CC[C@@H]1[C@@]24OO3 [ARTENIMOL] | 0.9 nM
CCNCc1cc(Nc2ccnc3cc(Cl)ccc23)ccc1O [DESETHYL AMODIAQUINE] | 23 nM
OC(c1cc(C(F)(F)F)nc2c(C(F)(F)F)cccc12)C1CCCCN1 (stereo not given) [MEFLOQUINE] | 14 nM

Tested on: Plasmodium falciparum
Assay: Antimalarial activity against Plasmodium falciparum IMT 8425 assessed as incorporation of [3H]hypoxanthine after 48 hrs by scintillation counter
Assay type: functional, organism-based

Structure (SMILES) | IC50
C[C@H]1[C@@H](O)O[C@@H]2O[C@@]3(C)CC[C@H]4[C@H](C)CC[C@@H]1[C@@]24OO3 [ARTENIMOL] | 0.9 nM
CCNCc1cc(Nc2ccnc3cc(Cl)ccc23)ccc1O [DESETHYL AMODIAQUINE] | 23 nM
OC(c1cc(C(F)(F)F)nc2c(C(F)(F)F)cccc12)C1CCCCN1 (stereo not given) [MEFLOQUINE] | 14 nM

Tested on: Plasmodium falciparum
Assay: Antimalarial activity against Plasmodium falciparum IMT 9881 assessed as incorporation of [3H]hypoxanthine after 48 hrs by scintillation counter
Assay type: functional, organism-based

Structure (SMILES) | IC50
C[C@H]1[C@@H](O)O[C@@H]2O[C@@]3(C)CC[C@H]4[C@H](C)CC[C@@H]1[C@@]24OO3 [ARTENIMOL] | 0.9 nM
CCNCc1cc(Nc2ccnc3cc(Cl)ccc23)ccc1O [DESETHYL AMODIAQUINE] | 23 nM
OC(c1cc(C(F)(F)F)nc2c(C(F)(F)F)cccc12)C1CCCCN1 (stereo not given) [MEFLOQUINE] | 14 nM

Tested on: Plasmodium falciparum
Assay: Antimalarial activity against Plasmodium falciparum IMT 10336 assessed as incorporation of [3H]hypoxanthine after 48 hrs by scintillation counter
Assay type: functional, organism-based

Structure (SMILES) | IC50
C[C@H]1[C@@H](O)O[C@@H]2O[C@@]3(C)CC[C@H]4[C@H](C)CC[C@@H]1[C@@]24OO3 [ARTENIMOL] | 0.9 nM
CCNCc1cc(Nc2ccnc3cc(Cl)ccc23)ccc1O [DESETHYL AMODIAQUINE] | 23 nM
OC(c1cc(C(F)(F)F)nc2c(C(F)(F)F)cccc12)C1CCCCN1 (stereo not given) [MEFLOQUINE] | 14 nM

Tested on: Plasmodium falciparum
Assay: Antimalarial activity against Plasmodium falciparum IMT 10500 assessed as incorporation of [3H]hypoxanthine after 48 hrs by scintillation counter
Assay type: functional, organism-based

Structure (SMILES) | IC50
C[C@H]1[C@@H](O)O[C@@H]2O[C@@]3(C)CC[C@H]4[C@H](C)CC[C@@H]1[C@@]24OO3 [ARTENIMOL] | 0.9 nM
CCNCc1cc(Nc2ccnc3cc(Cl)ccc23)ccc1O [DESETHYL AMODIAQUINE] | 23 nM
OC(c1cc(C(F)(F)F)nc2c(C(F)(F)F)cccc12)C1CCCCN1 (stereo not given) [MEFLOQUINE] | 14 nM

Tested on: Plasmodium falciparum
Assay: Antimalarial activity against Plasmodium falciparum IMT 16332 assessed as incorporation of [3H]hypoxanthine after 48 hrs by scintillation counter
Assay type: functional, organism-based

Structure (SMILES) | IC50
C[C@H]1[C@@H](O)O[C@@H]2O[C@@]3(C)CC[C@H]4[C@H](C)CC[C@@H]1[C@@]24OO3 [ARTENIMOL] | 0.9 nM
CCNCc1cc(Nc2ccnc3cc(Cl)ccc23)ccc1O [DESETHYL AMODIAQUINE] | 23 nM
OC(c1cc(C(F)(F)F)nc2c(C(F)(F)F)cccc12)C1CCCCN1 (stereo not given) [MEFLOQUINE] | 14 nM

Tested on: Plasmodium falciparum
Assay: Antimalarial activity against Plasmodium falciparum IMT K14 assessed as incorporation of [3H]hypoxanthine after 48 hrs by scintillation counter
Assay type: functional, organism-based

Structure (SMILES) | IC50
C[C@H]1[C@@H](O)O[C@@H]2O[C@@]3(C)CC[C@H]4[C@H](C)CC[C@@H]1[C@@]24OO3 [ARTENIMOL] | 0.9 nM
CCNCc1cc(Nc2ccnc3cc(Cl)ccc23)ccc1O [DESETHYL AMODIAQUINE] | 23 nM
OC(c1cc(C(F)(F)F)nc2c(C(F)(F)F)cccc12)C1CCCCN1 (stereo not given) [MEFLOQUINE] | 14 nM

Tested on: Plasmodium falciparum
Assay: Antimalarial activity against Plasmodium falciparum IMT K2 assessed as incorporation of [3H]hypoxanthine after 48 hrs by scintillation counter
Assay type: functional, organism-based

Structure (SMILES) | IC50
C[C@H]1[C@@H](O)O[C@@H]2O[C@@]3(C)CC[C@H]4[C@H](C)CC[C@@H]1[C@@]24OO3 [ARTENIMOL] | 0.9 nM
CCNCc1cc(Nc2ccnc3cc(Cl)ccc23)ccc1O [DESETHYL AMODIAQUINE] | 23 nM
OC(c1cc(C(F)(F)F)nc2c(C(F)(F)F)cccc12)C1CCCCN1 (stereo not given) [MEFLOQUINE] | 14 nM
C=C[C@H]1CN2CC[C@H]1C[C@H]2[C@H](O)c1ccnc2ccc(OC)cc12 [QUININE] | 48 nM

Tested on: Plasmodium falciparum
Assay: Antimalarial activity against Plasmodium falciparum IMT K4 assessed as incorporation of [3H]hypoxanthine after 48 hrs by scintillation counter
Assay type: functional, organism-based

Structure (SMILES) | IC50
C[C@H]1[C@@H](O)O[C@@H]2O[C@@]3(C)CC[C@H]4[C@H](C)CC[C@@H]1[C@@]24OO3 [ARTENIMOL] | 0.9 nM
CCNCc1cc(Nc2ccnc3cc(Cl)ccc23)ccc1O [DESETHYL AMODIAQUINE] | 23 nM
OC(c1cc(C(F)(F)F)nc2c(C(F)(F)F)cccc12)C1CCCCN1 (stereo not given) [MEFLOQUINE] | 14 nM

Tested on: Plasmodium falciparum
Assay: Antimalarial activity against Plasmodium falciparum IMT L1 assessed as incorporation of [3H]hypoxanthine after 48 hrs by scintillation counter
Assay type: functional, organism-based

Structure (SMILES) | IC50
C[C@H]1[C@@H](O)O[C@@H]2O[C@@]3(C)CC[C@H]4[C@H](C)CC[C@@H]1[C@@]24OO3 [ARTENIMOL] | 0.9 nM
CCNCc1cc(Nc2ccnc3cc(Cl)ccc23)ccc1O [DESETHYL AMODIAQUINE] | 23 nM
OC(c1cc(C(F)(F)F)nc2c(C(F)(F)F)cccc12)C1CCCCN1 (stereo not given) [MEFLOQUINE] | 14 nM

Tested on: Plasmodium falciparum
Assay: Antimalarial activity against Plasmodium falciparum IMT Vol assessed as incorporation of [3H]hypoxanthine after 48 hrs by scintillation counter
Assay type: functional, organism-based

Structure (SMILES) | IC50
C[C@H]1[C@@H](O)O[C@@H]2O[C@@]3(C)CC[C@H]4[C@H](C)CC[C@@H]1[C@@]24OO3 [ARTENIMOL] | 0.9 nM
CCNCc1cc(Nc2ccnc3cc(Cl)ccc23)ccc1O [DESETHYL AMODIAQUINE] | 23 nM
OC(c1cc(C(F)(F)F)nc2c(C(F)(F)F)cccc12)C1CCCCN1 (stereo not given) [MEFLOQUINE] | 14 nM
